Measured values from patent publication US20100022572A1, “NOVEL SPIRO COMPOUND AND MEDICINE COMPRISING THE SAME” (KOWA COMPANY, LTD., priority 2008, published 2010).

How the values were obtained:
human 11β-HSD2 = target: T1, human 11β-HSD2 (Homo sapiens, UniProt P80365); experiment: Assay of enzyme inhibitory activity, human 11β-HSD2 (lysate of stably expressing HEK293 cells, cortisol ELISA); format: biochemical; conditions: Table 1; human 11β-HSD2, cell lysate, 100 nmol/L substrate, 37° C. 1 hour
T1 construct: The obtained PCR products of about 0.9 kbp, 1.2 kbp, and 0.9 kbp were subcloned into an expression vector pcDNA3.1+/Zeo; made in house
T1 sequence (P80365 1-405): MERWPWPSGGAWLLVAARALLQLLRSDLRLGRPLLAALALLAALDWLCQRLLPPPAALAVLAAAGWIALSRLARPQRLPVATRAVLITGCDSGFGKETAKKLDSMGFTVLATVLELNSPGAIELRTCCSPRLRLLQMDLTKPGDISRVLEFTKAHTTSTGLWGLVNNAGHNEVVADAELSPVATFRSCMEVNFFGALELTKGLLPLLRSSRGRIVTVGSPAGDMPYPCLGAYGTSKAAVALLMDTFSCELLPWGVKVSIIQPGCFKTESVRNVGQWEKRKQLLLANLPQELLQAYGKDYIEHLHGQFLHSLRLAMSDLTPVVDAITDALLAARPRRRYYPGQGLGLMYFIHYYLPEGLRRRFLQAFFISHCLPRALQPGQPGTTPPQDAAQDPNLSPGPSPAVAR
Procedure: (§1) Human 11β-HSD1-, human 11β-HSD2- and mouse 11β-HSD1-inhibitory effect • 1. Human 11β-HSD1-, Human 11β-HSD2- and Mouse 11β-HSD1-Gene Clonings and Establishment of Stably Expressing Cells
(§2) Human 11β-HSD1-, human 11β-HSD2-, and mouse 11β-HSD1-gene clonings were conducted using as a template a reverse transcription product of human-liver RNA, human-kidney RNA (CELL APPLICATIONS), and mouse-kidney RNA respectively, by means of PCR cloning with reference to nucleotide sequences of Genbank Accession Nos. NM_005525, NM_000196, and NM_008288. The obtained PCR products of about 0.9 kbp, 1.2 kbp, and 0.9 kbp were subcloned into an expression vector pcDNA3.1+/Zeo (Invitrogen).
(§3) Human 11β-HSD1- and human 11β-HSD2-expressing vectors were transfected into human kidney-derived cell line, HEK293 cells, using a transfection reagent, jet PEI (Funakoshi). Mouse 11β-HSD1 was transfected to Chinese hamster ovary-derived cell line, CHO-K1 cells. Selection was conducted with 200-400 μg/mL of zeocine (Invitrogen) to provide stably expressing-cell clones. The stably expressing cells were suspended in buffer solution A (20 mmol/L Tris-HCl, pH 7.4, 250 mmol/L sucrose, 1 mmol/L EGTA, 1 mmol/L EDTA, 1 mmol/L MgCl2), sonicated, and then stored at −80° C. • 2. Assay of Enzyme Inhibitory Activity
(§4) An enzymatic reaction was conducted using a polystyrene 96-well plate. Each well was added with 1 μL of a test agent dissolved in DMSO and then diluted (0.003 to 3 mmol/L), and further added with 10 μL of cell lysate diluted to a concentration of 0.1 mg/mL to 0.4 mg/mL. Next, 90 μL of buffer solution A containing substrate (100 nmol/L cortisone or cortisol) and coenzyme (400 μmol/L NADPH or NAD+) was added and the mixture was incubated at 37° C. for 1 hour. The enzymatic reaction was stopped by treating at 95° C. for 3 minutes. Cortisol that was present in the reaction solution was determined by a competitive ELISA shown below.
Anti-rabbit IgG antibody (Chemi-con) diluted to 2 μg/mL with carbonate buffer solution (pH 9.6) was added in 100 μL each to a 96-well immuno plate (Nunc) and immobilized by an incubation at 4° C. overnight. 50 μL of enzymatic reaction solution was put onto the plates, and further, anti-cortisol antibody (Cosmo Bio) and HRP-labeled cortisol (Cosmo Bio), diluted with buffer solution B (25 mmol/L Tris-HCl pH 7.4, 137 mmol/L NaCl, 2.68 mmol/L KCl), were added in 50 μL respectively and incubated at 4° C. overnight. After washed three times with buffer solution B containing 0.05% Tween 20, the plates were allowed to develop color by adding 100 μL of color reagent, TMB (Moss). The color reaction was stopped by 25 μL of 1 mol/L sulfuric acid and the absorbance was determined at 450 nm with a microplate reader (Molecular Device, VersaMax). […]

human 11β-HSD1 = target: T2, human 11β-HSD1 (Homo sapiens, UniProt P28845); experiment: Assay of enzyme inhibitory activity, human 11β-HSD1 (lysate of stably expressing HEK293 cells, cortisol ELISA); format: biochemical; conditions: Table 1; human 11β-HSD1, cell lysate, 100 nmol/L substrate, 37° C. 1 hour
T2 construct: The obtained PCR products of about 0.9 kbp, 1.2 kbp, and 0.9 kbp were subcloned into an expression vector pcDNA3.1+/Zeo; made in house
T2 sequence (P28845 whole entry): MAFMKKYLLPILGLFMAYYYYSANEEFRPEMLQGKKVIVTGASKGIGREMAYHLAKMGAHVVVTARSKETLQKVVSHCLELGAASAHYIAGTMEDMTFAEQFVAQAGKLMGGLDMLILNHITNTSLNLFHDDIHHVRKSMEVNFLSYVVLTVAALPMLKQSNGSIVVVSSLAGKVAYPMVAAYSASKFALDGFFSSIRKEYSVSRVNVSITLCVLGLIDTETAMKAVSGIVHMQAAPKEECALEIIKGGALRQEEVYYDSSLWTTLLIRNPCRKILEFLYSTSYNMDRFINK
Procedure: as §1, §2, §3, §4
Anti-rabbit IgG antibody (Chemi-con) diluted to 2 μg/mL with carbonate buffer solution (pH 9.6) was added in 100 μL each to a 96-well immuno plate (Nunc) and immobilized by an incubation at 4° C. overnight. 50 μL of enzymatic reaction solution was put onto the plates, and further, anti-cortisol antibody (Cosmo Bio) and HRP-labeled cortisol (Cosmo Bio), diluted with buffer solution B (25 mmol/L Tris-HCl pH 7.4, 137 mmol/L NaCl, 2.68 mmol/L KCl), were added in 50 μL respectively and incubated at 4° C. overnight. After washed three times with buffer solution B containing 0.05% Tween 20, the plates were allowed to develop color by adding 100 μL of color reagent, TMB (Moss). The color reaction was stopped by 25 μL of 1 mol/L sulfuric acid and the absorbance was determined at 450 nm with a microplate reader (Molecular Device, VersaMax).
The values of human 11β-HSD1, human 11β-HSD2, and mouse 11β-HSD1 activities were subtracted from 100, and the resultant values were regarded as the respective 11β-HSD inhibition rates of example compounds. For each example compound, the value of 50% inhibitory concentration (IC50) was calculated from 11β-HSD inhibition rates at plural concentrations, for 11β-HSD1 and activities.

Structure (SMILES)	IC50 (human 11β-HSD2) [µM]	IC50 (human 11β-HSD1) [µM]
O=C(COc1ccccc1C(F)(F)F)N1CCC2(C=Cc3ccccc32)CC1 [Example 1, 1-[spiro(indene-1,4′-piperidine)-1′-yl]-2-[2-(trifluoromethyl)phenoxy]ethanone]	> 30	0.029
CCc1ccccc1OCC(=O)N1CCC2(C=Cc3ccccc32)CC1 [Example 3, 2-(2-ethylphenoxy)-1-[spiro(indene-1,4′-piperidine)-1′-yl]ethanone]	> 30	0.72
O=C(COc1ccccc1I)N1CCC2(C=Cc3ccccc32)CC1 [Example 4, 2-(2-iodophenoxy)-1-[spiro(indene-1,4′-piperidine)-1′-yl]ethanone]	> 30	0.11
O=C(COc1ccccc1C(F)(F)F)N1CCC2(CCc3ccccc32)CC1 [Example 10, 1-[2,3-dihydrospiro(indene-1,4′-piperidine)-1′-yl]-2-[2-(trifluoromethyl)phenoxy]ethanone]		0.025
O=C(COc1ccccc1C(F)(F)F)N1CCC2(CC1)c1ccccc1CC2O (centres unmarked) [Example 11, 1-[2-hydroxy-2,3-dihydrospiro(indene-1,4′-piperidine)-1′-yl]-2-[2-(trifluoromethyl)phenoxy]ethanone]		0.23
O=C(COc1ccccc1C(F)(F)F)N1CCC2(CC1)C(=O)Cc1ccccc12 [Example 12, 1′-[2-[2-(trifluoromethyl)phenoxy]acetyl]spiro(indene-1,4′-piperidine)-2(3H)-one]	> 30	0.077
O=C1CC2(CCN(C(=O)COc3ccccc3C(F)(F)F)CC2)c2ccccc21 [Example 13]		1
CC1=Cc2ccccc2C12CCN(C(=O)COc1ccccc1C(F)(F)F)CC2 [Example 16, 1-[2-methylspiro(indene-1,4′-piperidine)-1′-yl]-2-[2-(trifluoromethyl)phenoxy]ethanone]		0.043
CCC1=Cc2ccccc2C12CCN(C(=O)COc1ccccc1C(F)(F)F)CC2 [Example 17, 1-[2-ethylspiro(indene-1,4′-piperidine)-1′-yl]-2-[2-(trifluoromethyl)phenoxy]ethanone]		0.048
CCCC1=Cc2ccccc2C12CCN(C(=O)COc1ccccc1C(F)(F)F)CC2 [Example 18, 1-[2-propylspiro(indene-1,4′-piperidine)-1′-yl]-2-[2-(trifluoromethyl)phenoxy]ethanone]		0.24
CC(C)C1=Cc2ccccc2C12CCN(C(=O)COc1ccccc1C(F)(F)F)CC2 [Example 19, 1-[2-isopropylspiro(indene-1,4′-piperidine)-1′-yl]-2-[2-(trifluoromethyl)phenoxy]ethanone]		0.34
O=C(COc1ccccc1C(F)(F)F)N1CCC2(CC1)C(C1CC1)=Cc1ccccc12 [Example 20, 1-[2-cyclopropylspiro(indene-1,4′-piperidine)-1′-yl]-2-[2-(trifluoromethyl)phenoxy]ethanone]		0.088
O=C(COc1ccccc1C(F)(F)F)N1CCC2(CC1)C(Cl)=Cc1ccccc12 [Example 22, 1-[2-chlorospiro(indene-1,4′-piperidine)-1′-yl]-2-[2-(trifluoromethyl)phenoxy]ethanone]		0.03
O=C(COc1ccccc1C(F)(F)F)N1CCC2(CC1)C(Br)=Cc1ccccc12 [Example 23, 1-[2-bromospiro(indene-1,4′-piperidine)-1′-yl]-2-[2-(trifluoromethyl)phenoxy]ethanone]		0.049
CC1=CC2(CCN(C(=O)COc3ccccc3C(F)(F)F)CC2)c2ccccc21 [Example 24, 1-[3-methylspiro(indene-1,4′-piperidine)-1′-yl]-2-[2-(trifluoromethyl)phenoxy]ethanone]		0.066
CC1Cc2ccccc2C12CCN(C(=O)COc1ccccc1C(F)(F)F)CC2 (centres unmarked) [Example 25, 1-[2-methyl-2,3-dihydrospiro(indene-1,4′-piperidine)-1′-yl]-2-[2-(trifluoromethyl)phenoxy]ethanone]		0.12
